Measurements from paper PMC6272622, “Phytochemical Profiling and Evaluation of Pharmacological Activities of Hypericum scabrum L” (Molecules, 2015).
Read-outs that look alike come from different tables or passages of the source.

Assays:
[1] = test system: Candida albicans ATCC 10231; assay: Antimicrobial activity, agar well diffusion method; type: cell-based; conditions: 37 °C, 24 h
Method: (§1) Antimicrobial activity of compounds 1 to 6 and crude extracts 7a, 8a, 9a; 10 to 13 were measured using the agar well diffusion method. Bacterial and fungal pathogens such as S. aureus (ATCC 6538), E. coli (ATCC 11229) and C. albicans (ATCC 10231) were used as indicator strains for this analysis. These microorganisms were aseptically inoculated into appropriate liquid media and incubated at 37 °C. After 16 h, the cells were centrifuged at 6000 rpm for 10 min and then suspended in sterile water. The different cells (1 mL) were added to appropriate agar media (100 mL) prior to plating, and the wells were made using an agar well borer. To these wells, different concentrations of compounds 1 to 6 and the extracts 7a, 8a, 9a; 10 to 13 were added and subsequently incubated at 37 °C for 24 h. Zones of inhibition were estimated by measuring the diameter of the microbial growth inhibition zones. Values were averaged from three independent experiments.

[2] = test system: Escherichia coli ATCC 11229; assay: Antimicrobial activity, agar well diffusion method; type: cell-based; conditions: 37 °C, 24 h
Method: as §1

[3] = test system: Staphylococcus aureus ATCC 6538; assay: Antimicrobial activity, agar well diffusion method; type: cell-based; conditions: 37 °C, 24 h
Method: as §1

[4] = DPPH radical scavenging assay; conditions: 37 °C, 30 min, 515 nm; for IC50: pure compounds, read-out: DPPH Scavenging Effects, IC50 Values
Method: Radical scavenging assay was determined by a micro plate spectrophotometric method based on the reduction of DPPH according to the previous report. Various dilutions of pure compounds and crude extracts in the concentration range 0.0625 to 1 mM and 0.0625 to 1 mg∙mL^−1, respectively were made. Briefly DPPH solution (100 μL) and pure compound or crude extract in DMSO (100 μL) were added to each well of the micro plate and mixed. The mixture was shaken vigorously and left to stand at 37 °C for 30 min in dark. The absorbance of the solution was then measured at wavelength 515 nm using a micro plate spectrophotometer. Inhibition (%) of free radical (DPPH) was determined as [(Acontrol − Asample)/Acontrol] × 100, where: Acontrol is the absorbance of the control sample containing all reagents except the test sample and Asample is the absorbance of the test sample (pure compound or crude extract). Vitamin C was used as the positive control and tests were carried out in triplicate. The IC50 values were determined for all tested flavonoids, extract and control standard antioxidant.

[5] = target: T1, Protein tyrosine phosphatase 1B (PTP-1B) (Homo sapiens, UniProt P18031); assay: Protein tyrosine phosphatase 1B (PTP-1B) inhibition assay with pNPP substrate; type: biochemical
T1 sequence (P18031 1-435): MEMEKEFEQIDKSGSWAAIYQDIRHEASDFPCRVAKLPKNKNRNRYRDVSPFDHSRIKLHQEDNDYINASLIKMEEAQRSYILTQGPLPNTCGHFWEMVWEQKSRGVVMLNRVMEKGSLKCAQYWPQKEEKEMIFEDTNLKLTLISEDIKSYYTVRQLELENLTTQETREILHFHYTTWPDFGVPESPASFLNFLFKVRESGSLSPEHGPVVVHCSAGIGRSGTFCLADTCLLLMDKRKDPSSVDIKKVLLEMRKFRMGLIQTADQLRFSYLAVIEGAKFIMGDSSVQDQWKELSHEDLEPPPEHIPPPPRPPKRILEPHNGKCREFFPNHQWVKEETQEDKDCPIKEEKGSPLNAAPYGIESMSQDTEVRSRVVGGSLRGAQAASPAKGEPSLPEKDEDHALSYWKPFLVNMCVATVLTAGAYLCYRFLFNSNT
Method: Compounds were pre-incubated with the enzyme at room temperature for 5 min. Then, 178 µL of buffer solution (20 mM HEPES, 150 mM NaCl, 1 mM EDTA) was added in 96-well plates. […] After that, 1 µL of test and positive control sample were added. Thereafter, 20 µL of the substrate pNPP (35 mM) was added and mixed for 10 min. The plate was incubated in the dark for 30 min and the reaction was terminated by adding 10 µL of 3 M NaOH. The absorbance was then determined at 405 nm wavelength. […] Inhibition (%) = [(OD405 − OD405 blank)/OD405 blank] × 100. IC50 was calculated from the percentage inhibition values.

[6] = pNPP substrate, absorbance at 405 nm

Row | IC50 [4] [µM] | DPPH Scavenging Effects; IC50 Values ([4]; crude extracts) [µg/mL] | SMILES | Inhibition Zone Diameter CA [1] | Inhibition Zone Diameter EC [2] | Inhibition Zone Diameter SA [3] | IC50 [5, 6] [µM] | IC50 [5] [µM]
1 |  |  | C[C@@H]1[C@H](O)[C@@H](C)/C=C/C=C/C=C/C=C/C=C/C=C/C=C/[C@H](O[C@@H]2O[C@H](C)[C@@H](O)[C@H](N)[C@@H]2O)C[C@@H]2O[C@](O)(C[C@@H](O)C[C@@H](O)[C@H](O)CC[C@@H](O)C[C@@H](O)CC(=O)O[C@H]1C)C[C@H](O)[C@H]2C(=O)O [Amphotericin B, reference compound] | 15 mm |  |  |  | 
2 |  |  | CC1(C)S[C@@H]2[C@H](NC(=O)[C@H](N)c3ccccc3)C(=O)N2[C@H]1C(=O)O [Ampicillin, reference compound] |  | 14 mm | 19 mm |  | 
3 | > 500 |  | O=c1c(-c2c(O)cc(O)c3c(=O)cc(-c4ccc(O)cc4)oc23)c(-c2ccc(O)cc2)oc2cc(O)cc(O)c12 [Compound 1, 3-8′′-Bisapigenin] | n.e. | n.e. | 5.5 mm | > 50 | 
4 | 24.9 ± 1.4 |  | O=c1c(O)c(-c2ccc(O)c(O)c2)oc2cc(O)cc(O)c12 [Compound 2, Quercetin] | 6.5 mm | n.e. | 12 mm |  | 
5 | 38.3 ± 2 |  | O=c1c(O[C@@H]2O[C@@H](CO)[C@H](O)[C@H]2O)c(-c2ccc(O)c(O)c2)oc2cc(O)cc(O)c12 [Compound 3, Quercetin-3-O-α-L-arabinofuranoside] | n.e. | 5.5 mm | n.e. | > 50 | 
6 | 30.3 ± 2.4 | 5.34 ± 0.4 | O=C1O[C@H]([C@@H](O)CO)C(O)=C1O [Vitamin C, reference compound] |  |  |  |  | 

Row | SMILES | IC50 [4] [µM] | DPPH Scavenging Effects; IC50 Values ([4]; crude extracts) [µg/mL] | Inhibition Zone Diameter CA [1] | Inhibition Zone Diameter EC [2] | Inhibition Zone Diameter SA [3] | IC50 [5, 6] [µM] | IC50 [5] [µM]
7 | C[C@@H]1O[C@@H](Oc2c(-c3ccc(O)c(O)c3)oc3cc(O)cc(O)c3c2=O)[C@H](O)[C@H](O)[C@H]1O [Compound 4, Quercetin-3-O-α-L-rhamnoside] | 32.1 ± 1.6 |  | 5.5 mm | 8 mm | n.e. |  | > 50
8 | O=c1c(O[C@@H]2O[C@H](CO)[C@@H](O)[C@H](O)[C@H]2O)c(-c2ccc(O)c(O)c2)oc2cc(O)cc(O)c12 [Compound 5, Quercetin-3-O-β-D-glucopyranoside] | 24.8 ± 1.3 |  | n.e. | n.e. | 11 mm | > 50 | 
9 | O=c1c(O[C@@H]2O[C@H](CO)[C@H](O)[C@H](O)[C@H]2O)c(-c2ccc(O)c(O)c2)oc2cc(O)cc(O)c12 [Compound 6, Quercetin-3-O-β-D-galactopyranoside] | 29.5 ± 1.5 |  | n.e. | 6.5 mm | 11 mm | > 50 | 
